Patent publication US20060069132A1, “Azolecarboxamide herbicides” (priority 2004, published 2006)

What was measured:
[1] = test system: smallflower umbrella sedge; experiment: Test C flooded paddy test; assay type: in vivo, Cyperus difformis
[2] = test system: kochia; experiment: Test C pre-/postemergence herbicide test; assay type: in vivo, Kochia scoparia; settings: for Kochia plant response rating: 500 g ai/ha
Summary of the method: (§1)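 Preemergence: seeds planted and treated with compound in non-phytotoxic solvent with surfactant; postemergence: plants at 2 to 18 cm (1- to 4-leaf stage) sprayed likewise. Kept in greenhouse 12 to 14 days, then visually rated against controls, 0 (no effect) to 100 (complete control).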

[3] = test system: giant foxtail; experiment: Test C pre-/postemergence herbicide test; assay type: in vivo, Setaria faberi; settings: for Foxtail, Giant plant response rating: 500 g ai/ha
Summary of the method: as §1

[4] = test system: common ragweed; experiment: Test C pre-/postemergence herbicide test; assay type: in vivo, Ambrosia elatior; parameters: key to Plant response rating, Ragweed: 0 = no effect, 100 = complete control; settings: for Ragweed plant response rating: 500 g ai/ha
Summary of the method: as §1

[5] = test system: barnyardgrass; experiment: Test A pre-/postemergence herbicide test; assay type: in vivo, Echinochloa crus-galli
Summary of the method: (§2)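 Sandy loam soil given preemergence directed spray; plants at 2 to 10 cm, one- to two-leaf stage, sprayed to runoff postemergence, compounds in non-phytotoxic solvent with surfactant. Injury rated visually versus untreated controls after about ten greenhouse days, 0 (no effect) to 100 (complete control); dash means not tested.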

[6] = test system: giant foxtail; experiment: Test A pre-/postemergence herbicide test; assay type: in vivo, Setaria faberi
Summary of the method: as §2

[7] = test system: johnsongrass; experiment: Test C pre-/postemergence herbicide test; assay type: in vivo, Sorghum halepense; settings: for Johnsongrass plant response rating: 500 g ai/ha
Summary of the method: as §1

[8] = test system: large crabgrass; experiment: Test A pre-/postemergence herbicide test; assay type: in vivo, Digitaria sanguinalis
Summary of the method: as §2

[9] = test system: rice; experiment: Test C flooded paddy test; assay type: in vivo, Oryza sativa
Summary of the method: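 Postemergence sprays applied to plants 2 to 18 cm tall (1- to 4-leaf stage); paddy species grown to 2-leaf stage under flooding. After 12 to 14 days in greenhouse, visual rating versus untreated controls on 0–100 scale (0 no effect, 100 complete control).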

[10] = test system: corn; experiment: Test C pre-/postemergence herbicide test; assay type: in vivo, Zea mays; settings: for Corn plant response rating: 500 g ai/ha
Summary of the method: as §1

[11] = 62 g ai/ha, scale 0 to 100 (0 no effect, 100 complete control)
[12] = 125 g ai/ha, scale 0 to 100 (0 no effect, 100 complete control)
[13] = 125 g ai/ha, scale 0 (no effect) to 100 (complete control), visual, 12 to 14 days, preemergence
[14] = Postemergence, 250 g ai/ha, scale 0 to 100, 0 no effect, 100 complete control
[15] = Preemergence, scale 0 to 100, 0 no effect, 100 complete control
[16] = postemergence, 125 g ai/ha, scale 0 to 100
[17] = postemergence, 62 g ai/ha, scale 0 to 100
[18] = 250 g ai/ha, scale 0 to 100 (0 no effect, 100 complete control), visual, 12 to 14 days, preemergence
[19] = Postemergence, 500 g ai/ha, 0 to 100 scale, 0 no effect, 100 complete control
[20] = Postemergence, 2000 g ai/ha, 0 to 100 scale, 0 no effect, 100 complete control
[21] = Preemergence, 500 g ai/ha, visual rating, 0 to 100 scale (0 no effect, 100 complete control)
[22] = Preemergence, 2000 g ai/ha, visual rating, 0 to 100 scale (0 no effect, 100 complete control)

## C#CCNC(=O)c1cccc(NC(=O)c2cc(C(C)(C)C)nn2CC)n1 [Compound 147]
[1]; 16 g ai/ha, scale 0 to 100
  Sedge, Umbrella plant response rating: 0
[1]; 31 g ai/ha, scale 0 to 100
  Sedge, Umbrella plant response rating: 20
[1]; [11]
  Sedge, Umbrella plant response rating: 30
[1]; [12]
  Sedge, Umbrella plant response rating: 50
[2]; [13]
  Plant response rating, Kochia: 40
[2]; Postemergence, scale 0 to 100
  Kochia plant response rating: 80
[2]; [14]
  Plant response rating, Kochia: 50
[2]; [15]
  Kochia plant response rating: 100
[2]; [16]
  Plant response rating, Kochia: 10
[2]; [17]
  Plant response rating, Kochia: 5
[3]; 62 g ai/ha, preemergence
  Plant response rating (0 = no effect, 100 = complete control), Foxtail, Giant: 0
[3]; [13]
  Plant response rating, Foxtail, Giant: 0
[3]; [18]
  Plant response rating, Foxtail, Giant: 30
[3]; Postemergence, scale 0 to 100
  Foxtail, Giant plant response rating: 45
[3]; [14]
  Plant response rating, Foxtail, Giant: 0
[3]; [15]
  Foxtail, Giant plant response rating: 100
[3]; [16]
  Plant response rating, Foxtail, Giant: 0
[3]; [17]
  Plant response rating, Foxtail, Giant: 0
[4]; 62 g ai/ha, preemergence
  Plant response rating (0 = no effect, 100 = complete control), Ragweed: 0
[4]; [13]
  Plant response rating, Ragweed: 0
[4]; Postemergence, scale 0 to 100
  Ragweed plant response rating: 10
[4]; [14]
  Plant response rating, Ragweed: 10
[4]; [15]
  Ragweed plant response rating: 70
[4]; [16]
  Plant response rating, Ragweed: 0
[4]; [17]
  Plant response rating, Ragweed: 0
[5]; [19]
  Barnyardgrass plant response rating: 55
[5]; [20]
  Plant response rating, Barnyardgrass: 95
[5]; [21]
  Barnyardgrass plant response rating: 40
[5]; [22]
  Barnyardgrass plant response rating: 95
[6]; [19]
  Foxtail, Giant plant response rating: 45
[6]; [20]
  Plant response rating, Foxtail, Giant: 90
[6]; [21]
  Foxtail, Giant plant response rating: 60
[6]; [22]
  Foxtail, Giant plant response rating: 95
[7]; 62 g ai/ha, preemergence
  Plant response rating (0 = no effect, 100 = complete control), Johnsongrass: 0
[7]; [13]
  Plant response rating, Johnsongrass: 40
[7]; Postemergence, scale 0 to 100
  Johnsongrass plant response rating: 10
[7]; [14]
  Plant response rating, Johnsongrass: 10
[7]; [15]
  Johnsongrass plant response rating: 80
[7]; [17]
  Plant response rating, Johnsongrass: 0
[8]; [19]
  Crabgrass, Large plant response rating: 40
[8]; [20]
  Plant response rating, Crabgrass, Large: 90
[8]; [21]
  Crabgrass, Large plant response rating: 85
[8]; [22]
  Crabgrass, Large plant response rating: 90
[9]; 16 g ai/ha, scale 0 to 100
  Rice plant response rating: 0
[9]; 31 g ai/ha, scale 0 to 100
  Rice plant response rating: 0
[9]; [11]
  Rice plant response rating: 0
[9]; [12]
  Rice plant response rating: 0
[10]; 62 g ai/ha, preemergence
  Plant response rating (0 = no effect, 100 = complete control), Corn: 0
[10]; [13]
  Plant response rating, Corn: 0
[10]; [18]
  Plant response rating, Corn: 0
[10]; Postemergence, scale 0 to 100
  Corn plant response rating: 15
[10]; [14]
  Plant response rating, Corn: 10
[10]; [15]
  Corn plant response rating: 60
[10]; [16]
  Plant response rating, Corn: 5
[10]; [17]
  Plant response rating, Corn: 0
